B1: GE010883: Sorghum bicolor variant HPPD with maize motif substitutions, SEQ ID NO: 459 (protein)
chain: MPPTPTTAAATGAAVAAASAEQAAFRLVGHRNFVRVNPRSDRFHTLAFHHVELWCADAASAAGRFSFGLGAPLAARSDLSTGNTAHASLLLRSGALAFLFTAPYAHGADAATASLPSFSAAEARRFAADHGLAVRAVALRVADAEDAFRASVAAGARPAFEPVELGLGFRLAEVELYGDVVLRYVSYPDDADASFLPGFVGVTSPGAADYGLRRFDHIVGNVPELAPAAAYMAGFTGFHEFAEFTAEDVGTTESGLNSMALANNAENVLLPLNEPVHGTKRRSQIQTYLDHHGGPGVQHIALASDDVLRTLREMQARSAMGGFEFLPPPLSEYYDGVRRCAGDVLTEAQIKECQELGVMVDRDDQGVLLQIFTKPVGDRPTLFLEIIQRIGCMEKDEKGQEYQKGGCGGFGKGNFGQLFKSIEDYEKSLEAKQAAAAQGS
modifications: HPPD variant

How the values were obtained:
soybean plants = assay: Herbicide spray tests of transgenic HPPD soy plants (T1/T2) with multiple HPPD-inhibitor herbicides, visual injury; type: in vivo; conditions: for Soybean Response (% Injury): Elite Line Nontransgenic, foliar, V1 stage; for Soybean Response (% Injury), Null: T1 soybean PHP45921A D0223903 SEQ ID NO: 3, null segregants; for Soybean Response (% Injury), Positive: T1 soybean PHP45921A D0223903 SEQ ID NO: 3, positive segregants
Procedure: T1 plants were evaluated for zygosity. Homozygous single-locus transgenic plants and their corresponding null segregants were identified and T2 true breeding seed was obtained from each. Plants were grown to the V1 to V2 growth stage and then sprayed with the commercial formulation of mesotrione, tembotrione, topramezone, and isoxaflutole. All treatments were applied with nonionic surfactant and ammonium sulfate in a spray volume of 374 L/ha. Multiple rates of each herbicide were applied so a response range could be used to compare the relative tolerance of the different herbicides as well as the relative tolerance of homozygous nulls and positives for each event. The herbicide response for individual treated plants was evaluated by comparing to untreated plants of similar genetic background. Herbicide response ratings were eight days after treatment. Visual injury was on a scale of 0 to 100% injury (0=no effect to 100=dead plant).
T1 soybean plants expressing D0223903 (SEQ ID NO: 3) driven by a synthetic promoter (as described in U.S. Pat. No. 6,072,050) were evaluated with qPCR for the presence of the transgene and null and positive segregants selected. Plants were sprayed at the V1 growth stage with the commercial formulations of mesotrione, tembotrione, topramezone, and isoxaflutole. Two rates of each herbicide were applied foliarly with nonionic surfactant and ammonium sulfate in a spray volume of 374 L/ha. The herbicide response for individual plants was determined by comparing to untreated plants of similar genetic background. Visual injury was on a scale of 0 to 100% injury (0=no effect to 100=dead plant).

S. bicolor HPPD = assay: ON/OFF rate ratio insensitivity parameters of HPPD with maize motif substitutions; type: biochemical, Sorghum bicolor
Procedure: [formula] Higher KD (reduced affinity or increased insensitivity) can be attained with a numerically smaller ON rate, a larger OFF rate or both. […] The ratio of the reaction rate with inhibitor to that without inhibitor during the 70 to 90 second interval of the reaction was termed the “ON rate ratio”. […] Incubations with the same concentrations of enzyme but no mesotrione were done in parallel. After 1 hr at room temperature, 5 to 10 ul of the enzyme-inhibitor complex was dispensed into the wells of the assay plate. Reactions were started with the addition of 290 to 295 ul of 25 mM Hepes, pH 7, 2 mM ascorbate, 10 uM FeSO4, 100 uM HPP and 50 nM HGD. The reactions were monitored at 320 nm for 12 min. Reaction velocity accelerates as inhibitor is released from the enzyme until a steady state is reached, during which the reaction velocity is constant. The ratio of the steady state rate in mixtures containing mesotrione (or other herbicidal inhibitor) to the initial velocity of mixtures lacking inhibitor is termed the “OFF rate ratio”. Another parameter to record is the time span required for the reactions with inhibitor to reach the steady state. […] It is not certain that the steady state attained in the OFF rate reactions actually represents an equilibrium where OFF rates are now equal to ON rates. Because substrate and inhibitors bind in the same site, the high concentration of substrate present may competitively trap the inhibitor and prevent it from binding again. To be sure that improvement in ON rates is being taken into account, the ON and OFF rate ratios were multiplied together and the product is termed the “insensitivity parameter”.

Molecule	Soybean Response (% Injury) (soybean plants; rate 26.25 g ai/ha) [%]	Soybean Response (% Injury), Null (soybean plants; rate 26.25 g ai/ha) [%]	Soybean Response (% Injury), Positive (soybean plants; rate 26.25 g ai/ha) [%]	Soybean Response (% Injury) (soybean plants; rate 105 g ai/ha) [%]	Soybean Response (% Injury) (soybean plants; rate 210 g ai/ha) [%]	Soybean Response (% Injury), Null (soybean plants; rate 105 g ai/ha) [%]	Soybean Response (% Injury), Null (soybean plants; rate 210 g ai/ha) [%]	Soybean Response (% Injury), Positive (soybean plants; rate 105 g ai/ha) [%]	Soybean Response (% Injury), Positive (soybean plants; rate 210 g ai/ha) [%]	also measured
CS(=O)(=O)c1cc(C(F)(F)F)ccc1C(=O)c1cnoc1C1CC1 [Isoxaflutole]	72	78	5							Soybean Response (% Injury) (soybean plants; rate 13.12 g ai/ha): 70%; Soybean Response (% Injury), Null (soybean plants; rate 13.12 g ai/ha): 80%; Soybean Response (% Injury), Positive (soybean plants; rate 13.12 g ai/ha): 15%
CS(=O)(=O)c1ccc(C(=O)C2C(=O)CCCC2=O)c([N+](=O)[O-])c1 [Mesotrione]				65	75	80	83	10	20	
CS(=O)(=O)c1ccc(C(=O)C2C(=O)CCCC2=O)c(Cl)c1COCC(F)(F)F [Tembotrione]				70	78	75	75	40	33	
Cc1c(C(=O)c2cnn(C)c2O)ccc(S(C)(=O)=O)c1C1=NOCC1 [Topramezone]	78	75	5							Soybean Response (% Injury) (soybean plants; rate 52.5 g ai/ha): 78%; Soybean Response (% Injury), Null (soybean plants; rate 52.5 g ai/ha): 78%; Soybean Response (% Injury), Positive (soybean plants; rate 52.5 g ai/ha): 20%
B1										improvement of insensitivity vs native protein (S. bicolor HPPD; mesotrione): 6.13 fold; improvement of insensitivity vs native protein (S. bicolor HPPD; tembotrione): 7.71 fold

Reference: patent US9187762B2, “Compositions and methods comprising sequences having hydroxyphenylpyruvate dioxygenase (HPPD) activity” (PIONEER HI-BRED INTERNATIONAL, INC., priority 2010, dated 2015)
